What was measured:
MOLM-13 = assay: Cytotoxicity against human MOLM-13 cells assessed as induction of cell death incubated for 24 hrs by WST-1 assay; conditions: MOLM-13, 24 h
HCT-116 = assay: Cytotoxicity against human HCT-116 cells assessed as inhibition of cell growth incubated for 24 hrs by MTT assay; format: functional, cell-based; conditions: HCT-116, 24 h
[1] = target: Serine/threonine-protein kinase N2 (Homo sapiens, UniProt Q16513); assay: Inhibition of human PRK2 using ISDELMDATFADQEAKKK as substrate in presence of ATP
Sequence of Serine/threonine-protein kinase N2 (Q16513 whole entry): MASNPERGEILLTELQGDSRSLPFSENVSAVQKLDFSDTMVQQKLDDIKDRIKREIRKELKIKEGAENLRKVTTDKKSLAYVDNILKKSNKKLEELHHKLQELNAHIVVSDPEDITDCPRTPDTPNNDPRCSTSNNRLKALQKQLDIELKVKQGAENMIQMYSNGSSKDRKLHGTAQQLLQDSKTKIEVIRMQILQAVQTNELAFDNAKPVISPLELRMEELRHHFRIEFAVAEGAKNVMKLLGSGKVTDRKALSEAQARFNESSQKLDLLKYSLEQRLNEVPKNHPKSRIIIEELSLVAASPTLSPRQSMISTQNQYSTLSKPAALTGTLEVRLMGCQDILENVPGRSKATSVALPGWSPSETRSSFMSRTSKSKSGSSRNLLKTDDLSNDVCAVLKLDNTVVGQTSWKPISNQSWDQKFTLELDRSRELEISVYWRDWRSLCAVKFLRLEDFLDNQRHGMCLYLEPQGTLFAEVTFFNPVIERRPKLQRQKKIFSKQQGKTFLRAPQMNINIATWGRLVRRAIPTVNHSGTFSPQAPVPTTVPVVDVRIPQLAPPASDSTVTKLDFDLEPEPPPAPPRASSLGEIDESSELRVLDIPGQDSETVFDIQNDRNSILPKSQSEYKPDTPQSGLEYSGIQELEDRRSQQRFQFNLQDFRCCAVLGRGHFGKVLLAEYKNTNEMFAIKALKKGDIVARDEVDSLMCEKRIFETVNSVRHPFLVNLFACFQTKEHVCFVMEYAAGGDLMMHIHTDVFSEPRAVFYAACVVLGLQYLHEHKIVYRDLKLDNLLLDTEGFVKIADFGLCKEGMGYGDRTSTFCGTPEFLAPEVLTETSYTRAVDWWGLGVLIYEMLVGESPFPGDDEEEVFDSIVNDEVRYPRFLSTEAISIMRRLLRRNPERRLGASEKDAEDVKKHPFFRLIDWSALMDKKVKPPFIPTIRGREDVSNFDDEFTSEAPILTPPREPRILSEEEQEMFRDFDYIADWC

[2] = target: Serine/threonine-protein kinase pim-1 (Homo sapiens, UniProt P11309)
Sequence of Serine/threonine-protein kinase pim-1 (P11309 whole entry): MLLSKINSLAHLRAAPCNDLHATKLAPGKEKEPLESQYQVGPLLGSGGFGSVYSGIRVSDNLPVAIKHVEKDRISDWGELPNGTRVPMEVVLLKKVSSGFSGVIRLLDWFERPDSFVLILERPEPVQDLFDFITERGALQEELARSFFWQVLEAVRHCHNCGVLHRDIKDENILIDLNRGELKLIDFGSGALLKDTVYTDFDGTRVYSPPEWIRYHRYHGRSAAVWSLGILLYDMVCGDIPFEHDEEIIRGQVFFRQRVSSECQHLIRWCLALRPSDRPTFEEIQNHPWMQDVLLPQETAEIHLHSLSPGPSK
Description: Inhibition of PIM-1 (unknown origin)

[3] = target: Serine/threonine-protein kinase pim-2 (Homo sapiens, UniProt Q9P1W9); assay: Inhibition of PIM-2 (unknown origin)
Sequence of Serine/threonine-protein kinase pim-2 (Q9P1W9 whole entry): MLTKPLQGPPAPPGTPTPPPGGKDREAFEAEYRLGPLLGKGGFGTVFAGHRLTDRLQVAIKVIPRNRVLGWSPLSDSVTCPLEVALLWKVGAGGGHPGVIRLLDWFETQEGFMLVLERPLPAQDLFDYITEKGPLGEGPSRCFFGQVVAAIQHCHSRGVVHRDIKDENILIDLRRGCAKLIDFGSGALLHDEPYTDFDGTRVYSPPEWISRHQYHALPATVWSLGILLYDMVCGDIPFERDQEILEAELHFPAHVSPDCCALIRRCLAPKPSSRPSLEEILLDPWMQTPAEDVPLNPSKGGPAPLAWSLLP

[4] = target: 5'-AMP-activated protein kinase catalytic subunit alpha-2 (Homo sapiens, UniProt P54646); assay: Inhibition of human AMPK using HMRSAMSGLHLVKRR as substrate in presence of ATP
Sequence of 5'-AMP-activated protein kinase catalytic subunit alpha-2 (P54646 whole entry): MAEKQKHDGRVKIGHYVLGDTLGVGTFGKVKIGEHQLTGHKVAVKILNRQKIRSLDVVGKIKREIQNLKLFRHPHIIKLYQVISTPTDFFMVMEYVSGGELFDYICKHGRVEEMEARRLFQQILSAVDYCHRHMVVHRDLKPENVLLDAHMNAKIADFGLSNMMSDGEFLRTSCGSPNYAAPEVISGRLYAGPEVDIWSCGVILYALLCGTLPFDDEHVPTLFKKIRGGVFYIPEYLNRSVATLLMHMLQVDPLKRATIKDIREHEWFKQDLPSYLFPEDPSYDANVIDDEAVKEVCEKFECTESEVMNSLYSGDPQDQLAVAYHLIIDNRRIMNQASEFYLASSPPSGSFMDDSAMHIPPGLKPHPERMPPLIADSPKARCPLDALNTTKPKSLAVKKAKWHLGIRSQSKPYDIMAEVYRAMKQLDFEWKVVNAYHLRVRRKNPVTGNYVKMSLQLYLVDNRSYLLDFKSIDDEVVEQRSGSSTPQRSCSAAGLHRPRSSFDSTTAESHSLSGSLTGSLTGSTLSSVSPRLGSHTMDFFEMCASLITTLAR

[5] = target: Glycogen synthase kinase-3 beta (Homo sapiens, UniProt P49841); assay: Inhibition of human GSK3beta using Poly Glut Tyr as substrate in presence of ATP
Sequence of Glycogen synthase kinase-3 beta (P49841 whole entry): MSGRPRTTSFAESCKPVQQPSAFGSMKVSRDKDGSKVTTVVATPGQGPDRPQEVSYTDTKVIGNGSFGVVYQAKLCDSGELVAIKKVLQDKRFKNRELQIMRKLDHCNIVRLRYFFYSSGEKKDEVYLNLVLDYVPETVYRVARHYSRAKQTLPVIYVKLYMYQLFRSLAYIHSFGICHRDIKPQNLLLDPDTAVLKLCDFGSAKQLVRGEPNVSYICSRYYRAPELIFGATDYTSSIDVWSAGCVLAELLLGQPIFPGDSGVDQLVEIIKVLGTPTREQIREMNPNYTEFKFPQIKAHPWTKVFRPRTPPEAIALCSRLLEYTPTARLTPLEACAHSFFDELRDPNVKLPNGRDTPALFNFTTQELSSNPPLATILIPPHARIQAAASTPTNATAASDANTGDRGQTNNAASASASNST

[6] = target: T1, Tyrosine-protein kinase JAK3 (Homo sapiens, UniProt P52333); assay: Inhibition of human JAK3 using MBP as substrate in presence of ATP
T1 sequence (P52333 whole entry): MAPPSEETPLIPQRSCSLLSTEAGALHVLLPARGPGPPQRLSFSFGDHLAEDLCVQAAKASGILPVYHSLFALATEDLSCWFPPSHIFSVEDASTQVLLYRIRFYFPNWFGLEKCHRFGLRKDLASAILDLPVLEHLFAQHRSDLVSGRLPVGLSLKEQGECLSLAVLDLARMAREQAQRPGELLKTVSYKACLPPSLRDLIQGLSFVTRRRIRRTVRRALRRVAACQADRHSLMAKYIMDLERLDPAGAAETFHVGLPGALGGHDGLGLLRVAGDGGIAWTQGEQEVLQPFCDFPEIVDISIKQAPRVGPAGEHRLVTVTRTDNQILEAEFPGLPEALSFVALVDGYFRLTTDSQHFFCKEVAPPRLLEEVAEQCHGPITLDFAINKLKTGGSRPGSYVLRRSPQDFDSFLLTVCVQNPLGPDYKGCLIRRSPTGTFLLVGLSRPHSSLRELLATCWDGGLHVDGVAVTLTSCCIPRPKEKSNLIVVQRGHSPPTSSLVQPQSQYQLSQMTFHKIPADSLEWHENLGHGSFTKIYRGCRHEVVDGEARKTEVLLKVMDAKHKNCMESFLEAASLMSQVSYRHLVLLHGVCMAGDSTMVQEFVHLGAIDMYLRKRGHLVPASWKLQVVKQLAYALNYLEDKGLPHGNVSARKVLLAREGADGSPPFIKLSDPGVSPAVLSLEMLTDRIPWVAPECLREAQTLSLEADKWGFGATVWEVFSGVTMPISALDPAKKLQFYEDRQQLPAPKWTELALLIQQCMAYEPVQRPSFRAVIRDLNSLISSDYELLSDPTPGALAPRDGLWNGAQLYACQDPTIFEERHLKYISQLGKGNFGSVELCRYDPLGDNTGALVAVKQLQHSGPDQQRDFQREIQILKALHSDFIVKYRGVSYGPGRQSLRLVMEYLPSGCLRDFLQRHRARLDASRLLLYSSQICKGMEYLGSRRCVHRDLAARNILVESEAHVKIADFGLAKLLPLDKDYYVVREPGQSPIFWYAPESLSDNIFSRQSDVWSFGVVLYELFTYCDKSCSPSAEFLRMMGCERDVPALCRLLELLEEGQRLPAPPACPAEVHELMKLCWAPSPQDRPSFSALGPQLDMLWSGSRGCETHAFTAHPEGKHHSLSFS

[7] = target: MAP/microtubule affinity-regulating kinase 3 (Homo sapiens, UniProt P27448); assay: Inhibition of human MARK3 using ATPKKLNRTLSVA as substrate in presence of ATP
Sequence of MAP/microtubule affinity-regulating kinase 3 (P27448 whole entry): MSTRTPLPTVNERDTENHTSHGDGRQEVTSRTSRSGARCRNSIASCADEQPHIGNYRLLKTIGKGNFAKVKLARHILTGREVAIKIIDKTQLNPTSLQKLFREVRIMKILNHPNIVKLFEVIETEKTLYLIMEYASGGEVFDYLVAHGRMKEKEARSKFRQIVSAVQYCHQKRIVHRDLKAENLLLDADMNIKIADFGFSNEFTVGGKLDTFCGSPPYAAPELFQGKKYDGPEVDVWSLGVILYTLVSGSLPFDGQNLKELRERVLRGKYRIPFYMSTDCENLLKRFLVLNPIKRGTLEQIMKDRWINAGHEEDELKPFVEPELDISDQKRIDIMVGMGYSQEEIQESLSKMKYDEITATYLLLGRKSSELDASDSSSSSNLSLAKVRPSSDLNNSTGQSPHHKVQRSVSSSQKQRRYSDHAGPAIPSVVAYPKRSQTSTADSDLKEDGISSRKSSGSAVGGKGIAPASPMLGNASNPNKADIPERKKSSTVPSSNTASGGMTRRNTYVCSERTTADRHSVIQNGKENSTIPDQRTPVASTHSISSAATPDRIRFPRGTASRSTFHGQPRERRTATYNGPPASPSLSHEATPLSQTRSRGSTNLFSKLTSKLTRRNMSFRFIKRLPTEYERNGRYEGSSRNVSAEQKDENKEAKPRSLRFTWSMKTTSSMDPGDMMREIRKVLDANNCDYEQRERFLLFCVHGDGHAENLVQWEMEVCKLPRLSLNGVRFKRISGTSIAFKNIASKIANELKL

SMILES	EC50 (MOLM-13) [µM]	further results
NCCCCn1c2ccccc2c2c3[nH]ncc3c3c4ccccc4[nH]c3c21	2.7	
CCCCCn1c2ccccc2c2c3[nH]ncc3c3c4ccccc4[nH]c3c21	15	
CCN(CC)CCCn1c2ccccc2c2c3[nH]ncc3c3c4ccccc4[nH]c3c21	> 4	
OC[C@H]1O[C@@H](n2c3ccccc3c3c4cn[nH]c4c4c5ccccc5[nH]c4c32)[C@H](O)[C@@H](O)[C@@H]1O		IC50 (HCT-116): 11 µM
CCCCn1c2ccccc2c2c3[nH]ncc3c3c4ccccc4[nH]c3c21	> 5	
CNCCCn1c2ccccc2c2c3cn[nH]c3c3c4ccccc4[nH]c3c21		IC50 [1]: 9 nM; IC50 [2]: 45 nM; IC50 [3]: 316 nM; IC50 [4]: 14.4 nM; IC50 [5]: 128 nM; IC50 [6]: 41 nM; IC50 [7]: 24 nM
CN(C)CCCn1c2ccccc2c2c3[nH]ncc3c3c4ccccc4[nH]c3c21	3.8	
OCCCCn1c2ccccc2c2c3[nH]ncc3c3c4ccccc4[nH]c3c21	4.1	
CCN(CC)CCCCn1c2ccccc2c2c3[nH]ncc3c3c4ccccc4[nH]c3c21	4.3	
NCCCn1c2ccccc2c2c3[nH]ncc3c3c4ccccc4[nH]c3c21	> 40	
OC[C@H]1O[C@@H](n2c3ccccc3c3c4[nH]ncc4c4c5ccccc5[nH]c4c32)[C@H](O)[C@@H](O)[C@@H]1O		IC50 (HCT-116): 12 µM
CCCCCn1c2ccccc2c2c3cn[nH]c3c3c4ccccc4[nH]c3c21	> 5	

From ChEMBL document CHEMBL5512646, “Synthesis, kinase inhibition and anti-leukemic activities of diversely substituted indolopyrazolocarbazoles” (Eur J Med Chem, 2024)
